The subject of the assay is P. falciparum NF54 gametocytes fed to An. stephensi. Nature of the assay: Standard membrane feeding assay (London School of Hygiene and Tropical Medicine). The assay is classed as in vivo, Plasmodium falciparum. The note with it: W-991 1, 50, 100 nM; second insectary; Fig S7C-D. The protocol: These assays were performed at the Walter and Eliza Hall Institute and at the London School of Hygiene and Tropical Medicine using slightly different approaches which are described in the Supplementary Information. […]
Gametocyte culturing and standard membrane feeding assay (London School of Hygiene and Tropical Medicine). P. falciparum NF54 gametocytes were prepared for blood-feeding to mosquitoes according to the method described by 13, with some slight modifications. Briefly, gametocyte cultures seeded at 2% overall parasitaemia and 4% haematocrit were maintained at 37 °C for 17 days with daily media changes.
Gametocyte functional viability was assessed by ex-flagellation assay at day 14 post induction, observed by light microscopy. An. stephensi (SD500 strain) were reared as […]
Gametocyte aliquots from a single NF54 culture, produced as above, were incubated […]
or culture medium only (no -drug control) from day 14 until day 17 when SMFA was carried out. Fresh drug -containing media was provided each day during this exposure.
Pots of 70 -80 two- to five-day old female An. stephensi mosquitoes were allowed to feed on 500 µL of the respective culture+drug mixture, presented to each pot in a pre - heated 3D -printed water channel membrane feeder 15, until fully fed. […]

For the molecule `CC(C)(Nc1ccc(Cl)c(S(=O)(=O)N2CCOCC2)c1)C(=O)Nc1ccc(F)c(Cl)c1` [W-991], the “transmission to mosquitoes” value is listed as “reduction in transmission”.

For the origin of these results see publication PMC11189555, “Aryl amino acetamides prevent Plasmodium falciparum ring development via targeting the lipid-transfer protein PfSTART1” (Nature Communications, 2024).
